In PubChem BioAssay AID1963846 (Molecular Pharmacology Branch, DTP, NCI, 2024):

System: 454973-116-R2-J3-PDC complex spheroid viability
Assay: Anticancer human tumor 454973-116-R2-J3-PDC patient-derived pancreatic carcinoma cell line growth inhibition [POLQ]
Conditions: for IC50: curve of first compound; for viability, T/C: stronger effect = lower value
How it was run: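 Three-cell-type spheroids modelling solid tumor plus stroma served as the readout system; POL inhibitors were tested individually and in combination, concentration ranges set by clinical Cmax where known.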

[1] = second compound 0.0316 µM, first compound 0.0316 µM
[2] = second compound 0.0316 µM, first compound 0.1 µM
[3] = second compound 0.1 µM, first compound 0.0316 µM
[4] = second compound 0.1 µM, first compound 0.1 µM
[5] = second compound 0.316 µM, first compound 0.0316 µM
[6] = second compound 0.316 µM, first compound 0.1 µM
[7] = second compound 1 µM, first compound 0.0316 µM
[8] = second compound 1 µM, first compound 0.1 µM
[9] = second compound 3.16 µM, first compound 0.0316 µM
[10] = second compound 3.16 µM, first compound 0.1 µM
[11] = second compound 10 µM, first compound 0.0316 µM
[12] = second compound 10 µM, first compound 0.1 µM
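Further: spheroids exposed to drugs for seven days before measurement.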
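Wherever viability, T/C is given: percent viability relative to DMSO vehicle control wells taken as 100%.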

`COc1ccc([C@@H](O)c2cc(-c3ncnc4cc(N5CCOCC5)ccc34)c(F)cc2Cl)nn1` + Nc1ccc(C#CCN(C(=O)Cc2ncc(C(F)(F)F)cc2C(F)(F)F)c2ccc(F)cc2)nn1 was tested, and the IC50 (second compound 0.0316 µM) was greater than 10 µM, the IC50 (second compound 0.1 µM) was greater than 10 µM and the IC50 (second compound 0.316 µM) was greater than 10 µM. For the same compound, the IC50 (second compound 1 µM) was greater than 10 µM, the IC50 (second compound 3.16 µM) was greater than 10 µM and the IC50 (second compound 10 µM) was greater than 10 µM. For the same compound, the viability, T/C [1] was 107%, the viability, T/C [2] was 107% and the viability, T/C (second compound 0.0316 µM, first compound 0.316 µM) was 96.9%. For the same compound, the viability, T/C (second compound 0.0316 µM, first compound 1 µM) was 86.9%, the viability, T/C (second compound 0.0316 µM, first compound 3.16 µM) was 66.3% and the viability, T/C (second compound 0.0316 µM, first compound 10 µM) was 53.5%. It also gave a viability, T/C [3] of 106%, a viability, T/C [4] of 96.1% and a viability, T/C (second compound 0.1 µM, first compound 0.316 µM) of 108%. It also gave a viability, T/C (second compound 0.1 µM, first compound 1 µM) of 90.3%, a viability, T/C (second compound 0.1 µM, first compound 3.16 µM) of 69.2% and a viability, T/C (second compound 0.1 µM, first compound 10 µM) of 49.8%. The viability, T/C [5] was 107%, the viability, T/C [6] was 107% and the viability, T/C (second compound 0.316 µM, first compound 0.316 µM) was 102%. The viability, T/C (second compound 0.316 µM, first compound 1 µM) was 85.8%, the viability, T/C (second compound 0.316 µM, first compound 3.16 µM) was 73.9% and the viability, T/C (second compound 0.316 µM, first compound 10 µM) was 52.4%. The viability, T/C [7] was 107%, the viability, T/C [8] was 106% and the viability, T/C (second compound 1 µM, first compound 0.316 µM) was 104%. For the same compound, the viability, T/C (second compound 1 µM, first compound 1 µM) was 92.3%, the viability, T/C (second compound 1 µM, first compound 3.16 µM) was 79.4% and the viability, T/C (second compound 1 µM, first compound 10 µM) was 59.9%. The viability, T/C [9] was 102%, the viability, T/C [10] was 107% and the viability, T/C (second compound 3.16 µM, first compound 0.316 µM) was 116%. The viability, T/C (second compound 3.16 µM, first compound 1 µM) was 93.9%, the viability, T/C (second compound 3.16 µM, first compound 3.16 µM) was 68.5% and the viability, T/C (second compound 3.16 µM, first compound 10 µM) was 56.5%. It also gave a viability, T/C [11] of 120%, a viability, T/C [12] of 119% and a viability, T/C (second compound 10 µM, first compound 0.316 µM) of 118%. It also gave a viability, T/C (second compound 10 µM, first compound 1 µM) of 93.7%, a viability, T/C (second compound 10 µM, first compound 3.16 µM) of 80.3% and a viability, T/C (second compound 10 µM, first compound 10 µM) of 64.4%.
`Cn1ncnc1[C@H]1c2n[nH]c(=O)c3cc(F)cc(c23)N[C@@H]1c1ccc(F)cc1` + Nc1ccc(C#CCN(C(=O)Cc2ncc(C(F)(F)F)cc2C(F)(F)F)c2ccc(F)cc2)nn1 was tested, and the IC50 (second compound 0.0316 µM) was greater than 0.1 µM, the IC50 (second compound 0.1 µM) was greater than 0.1 µM and the IC50 (second compound 0.316 µM) was greater than 0.1 µM. For the same compound, the IC50 (second compound 1 µM) was greater than 0.1 µM, the IC50 (second compound 3.16 µM) was greater than 0.1 µM and the IC50 (second compound 10 µM) was greater than 0.1 µM. It also gave a viability, T/C (second compound 0.0316 µM, first compound 0.000316 µM) of 107%, a viability, T/C (second compound 0.0316 µM, first compound 0.001 µM) of 93.9% and a viability, T/C (second compound 0.0316 µM, first compound 0.00316 µM) of 98%. It also gave a viability, T/C (second compound 0.0316 µM, first compound 0.01 µM) of 90.9%, a viability, T/C [1] of 93.6% and a viability, T/C [2] of 82.3%. For the same compound, the viability, T/C (second compound 0.1 µM, first compound 0.000316 µM) was 108%, the viability, T/C (second compound 0.1 µM, first compound 0.001 µM) was 104% and the viability, T/C (second compound 0.1 µM, first compound 0.00316 µM) was 96.7%. The viability, T/C (second compound 0.1 µM, first compound 0.01 µM) was 98.9%, the viability, T/C [3] was 97.2% and the viability, T/C [4] was 79.9%. The viability, T/C (second compound 0.316 µM, first compound 0.000316 µM) was 105%, the viability, T/C (second compound 0.316 µM, first compound 0.001 µM) was 102% and the viability, T/C (second compound 0.316 µM, first compound 0.00316 µM) was 102%. For the same compound, the viability, T/C (second compound 0.316 µM, first compound 0.01 µM) was 92.3%, the viability, T/C [5] was 101% and the viability, T/C [6] was 89.2%. The viability, T/C (second compound 1 µM, first compound 0.000316 µM) was 109%, the viability, T/C (second compound 1 µM, first compound 0.001 µM) was 105% and the viability, T/C (second compound 1 µM, first compound 0.00316 µM) was 108%. For the same compound, the viability, T/C (second compound 1 µM, first compound 0.01 µM) was 105%, the viability, T/C [7] was 91.6% and the viability, T/C [8] was 82.9%. For the same compound, the viability, T/C (second compound 3.16 µM, first compound 0.000316 µM) was 111%, the viability, T/C (second compound 3.16 µM, first compound 0.001 µM) was 116% and the viability, T/C (second compound 3.16 µM, first compound 0.00316 µM) was 102%. It also gave a viability, T/C (second compound 3.16 µM, first compound 0.01 µM) of 100%, a viability, T/C [9] of 96.3% and a viability, T/C [10] of 84.7%. It also gave a viability, T/C (second compound 10 µM, first compound 0.000316 µM) of 112%, a viability, T/C (second compound 10 µM, first compound 0.001 µM) of 109% and a viability, T/C (second compound 10 µM, first compound 0.00316 µM) of 117%. It also gave a viability, T/C (second compound 10 µM, first compound 0.01 µM) of 107%, a viability, T/C [11] of 113% and a viability, T/C [12] of 95.8%.
